Data reported in patent publication US7772241B2, “Variolin derivatives and their use as antitumor agents” (Pharma Mar S.A., priority 2001, dated 2010).
Read-outs that look alike come from different tables or passages of the source.

What was measured:
DU-145 = experiment: Inhibition of cells growth by colorimetric (SRB) assay, DU-145
How it was run: (§1)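 Read-out is sulforhodamine B protein stain (OD 490 nm) after cold TCA fixation, following 48 h continuous exposure to samples spanning 10 to 10^−8 μg/ml.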

HeLa = experiment: Inhibition of cells growth by colorimetric (SRB) assay, HeLa; as to HELA TGI: unit not given here
How it was run: as §1

IGROV-ET = experiment: Inhibition of cells growth by colorimetric (SRB) assay, IGROV-ET; details: for CC50: read-out: IGROV-ET LC50, SRB assay, 48 hours exposure
How it was run: as §1

LoVo = experiment: Inhibition of cells growth by colorimetric (SRB) assay, LoVo; details: for CC50: read-out: LOVO LC50, SRB assay, 48 hours exposure
How it was run: as §1

SK-MEL-28 = experiment: Inhibition of cells growth by colorimetric (SRB) assay, SK-MEL-28; details: for CC50: read-out: MEL-28 LC50, SRB assay, 48 hours exposure
How it was run: as §1

A-549 = experiment: Inhibition of cells growth by colorimetric (SRB) assay, A-549; details: for CC50: read-out: A-549 LC50, SRB assay, 48 hours exposure
How it was run: as §1

LoVo-Dox = experiment: Inhibition of cells growth by colorimetric (SRB) assay, LoVo-Dox; details: for CC50: read-out: LOVO-DOX LC50, SRB assay, 48 hours exposure
How it was run: as §1

SK-BR-3 = experiment: Inhibition of cells growth by colorimetric (SRB) assay, SK-BR-3; details: for GI50 / CC50: Homo sapiens, SK-BR-3, 48 h; for GI50: read-out: SK-BR-3 GI50, SRB assay, 48 hours exposure; for CC50: read-out: SK-BR-3 LC50, SRB assay, 48 hours exposure; for SK-BR-3 TGI: SRB assay, 48 hours exposure
How it was run: as §1

K-562 = experiment: Inhibition of cells growth by colorimetric (SRB) assay, K-562; details: for CC50: read-out: K-562 LC50, SRB assay, 48 hours exposure
How it was run: as §1

HT-29 = experiment: Inhibition of cells growth by colorimetric (SRB) assay, HT-29; details: for CC50: read-out: HT-29 LC50, SRB assay, 48 hours exposure
How it was run: as §1

HeLa-APL = experiment: Inhibition of cells growth by colorimetric (SRB) assay, HeLa-APL
How it was run: as §1

PANC-1 = experiment: Inhibition of cells growth by colorimetric (SRB) assay, PANC-1; details: for CC50: read-out: PANC-1 LC50, SRB assay, 48 hours exposure
How it was run: as §1

IGROV-1 = experiment: Inhibition of cells growth by colorimetric (SRB) assay, IGROV-1; details: for CC50: read-out: IGROV LC50, SRB assay, 48 hours exposure
How it was run: as §1

LNCaP = experiment: Inhibition of cells growth by colorimetric (SRB) assay, LNCaP
How it was run: as §1

In the case of CSc1nccc(-c2c3c(N)ccnc3n3c(N)nccc23)n1.Cl [Compound 93], the GI50 (DU-145; Homo sapiens, DU-145, 48 h, read-out: DU-145 GI50, SRB assay, 48 hours exposure) is reported as 64.6 nM, the CC50 (DU-145; Homo sapiens, DU-145, 48 h, read-out: DU-145 LC50, SRB assay, 48 hours exposure) is reported as 2.33 µM and the “DU-145 TGI” value (DU-145; SRB assay, 48 hours exposure) is reported as 4.16E−07. The GI50 (HeLa; Homo sapiens, HeLa, 48 h, read-out: HELA GI50, SRB assay, 48 hours exposure) was 2.52 nM, the “HELA TGI” value (HeLa; SRB assay, 48 hours exposure) was 5.10E−09 and the GI50 (IGROV-ET; Homo sapiens, 48 h, read-out: IGROV-ET GI50, SRB assay, 48 hours exposure) was 860 nM. The CC50 (IGROV-ET; Homo sapiens, 48 h) was 2.52 µM, the “IGROV-ET TGI” value (IGROV-ET; SRB assay, 48 hours exposure) was 2.09E−06 and the GI50 (LoVo; Homo sapiens, LoVo, 48 h, read-out: LOVO GI50, SRB assay, 48 hours exposure) was 0.984 µM. For the same compound, the CC50 (LoVo; Homo sapiens, LoVo, 48 h) was 17.4 µM, the “LOVO TGI” value (LoVo; SRB assay, 48 hours exposure) was 3.84E−06 and the GI50 (SK-MEL-28; Homo sapiens, SK-MEL-28, 48 h, read-out: MEL-28 GI50, SRB assay, 48 hours exposure) was 767 nM. For the same compound, the CC50 (SK-MEL-28; Homo sapiens, SK-MEL-28, 48 h) was 10.7 µM, the “MEL-28 TGI” value (SK-MEL-28; SRB assay, 48 hours exposure) was 3.71E−06 and the GI50 (A-549; Homo sapiens, A549, 48 h, read-out: A-549 GI50, SRB assay, 48 hours exposure) was 249 nM. For the same compound, the CC50 (A-549; Homo sapiens, A549, 48 h) was 5.98 µM, the “A-549 TGI” value (A-549; SRB assay, 48 hours exposure) was 9.34E−07 and the GI50 (LoVo-Dox; Homo sapiens, 48 h, read-out: LOVO-DOX GI50, SRB assay, 48 hours exposure) was 0.699 µM. For the same compound, the CC50 (LoVo-Dox; Homo sapiens, 48 h) was 25.2 µM, the “LOVO-DOX TGI” value (LoVo-Dox; SRB assay, 48 hours exposure) was 1.68E−06 and the GI50 (SK-BR-3) was 326 nM. For the same compound, the CC50 (SK-BR-3) was 15.6 µM, the “SK-BR-3 TGI” value (SK-BR-3) was 1.59E−06 and the GI50 (K-562; Homo sapiens, K562, 48 h, read-out: K-562 GI50, SRB assay, 48 hours exposure) was 898 nM. The CC50 (K-562; Homo sapiens, K562, 48 h) was 25.2 µM, the “K-562 TGI” value (K-562; SRB assay, 48 hours exposure) was 1.57E−06 and the GI50 (HT-29; Homo sapiens, HT-29, 48 h, read-out: HT-29 GI50, SRB assay, 48 hours exposure) was 176 nM. For the same compound, the CC50 (HT-29; Homo sapiens, HT-29, 48 h) was 25.2 µM, the “HT-29 TGI” value (HT-29; SRB assay, 48 hours exposure) was 1.32E−06 and the GI50 (HeLa-APL; Homo sapiens, 48 h, read-out: HELA-APL GI50, SRB assay, 48 hours exposure) was 4.67 nM. The CC50 (HeLa-APL; Homo sapiens, 48 h, read-out: HELA-APL LC50, SRB assay, 48 hours exposure) was 29 nM, the “HELA-APL TGI” value (HeLa-APL; SRB assay, 48 hours exposure) was 6.03E−09 and the GI50 (PANC-1; Homo sapiens, PANC-1, 48 h, read-out: PANC-1 GI50, SRB assay, 48 hours exposure) was 220 nM. The CC50 (PANC-1; Homo sapiens, PANC-1, 48 h) was 25.2 µM, the “PANC-1 TGI” value (PANC-1; SRB assay, 48 hours exposure) was 2.78E−06 and the GI50 (IGROV-1; Homo sapiens, IGROV-1, 48 h, read-out: IGROV GI50, SRB assay, 48 hours exposure) was 144 nM. For the same compound, the CC50 (IGROV-1; Homo sapiens, IGROV-1, 48 h) was 25.2 µM, the “IGROV TGI” value (IGROV-1; SRB assay, 48 hours exposure) was 8.76E−07 and the GI50 (LNCaP; Homo sapiens, LNCaP, 48 h, read-out: LN-caP GI50, SRB assay, 48 hours exposure) was 127 nM. The CC50 (LNCaP; Homo sapiens, LNCaP, 48 h, read-out: LN-caP LC50, SRB assay, 48 hours exposure) was 1.67 µM and the “LN-caP TGI” value (LNCaP; SRB assay, 48 hours exposure) was 3.68E−07.

For CSc1nccc(-c2c3c(O)ccnc3n3c(N)nccc23)n1.Cl [Compound 97], the “DU-145 TGI” value (DU-145; SRB assay, 48 hours exposure) was 3.19E−06, the GI50 (DU-145; read-out: DU-145 GI50, SRB assay, 48 hours exposure) was 257 nM and the CC50 (DU-145; read-out: DU-145 LC50, SRB assay, 48 hours exposure) was 12.8 µM. For the same compound, the “HELA TGI” value (HeLa; SRB assay, 48 hours exposure) was 1.28E−07, the GI50 (HeLa; read-out: HELA GI50, SRB assay, 48 hours exposure) was 57.6 nM and the CC50 (IGROV-ET; Homo sapiens, 48 h) was 27.7 µM. For the same compound, the “IGROV-ET TGI” value (IGROV-ET; SRB assay, 48 hours exposure) was 8.12E−06, the GI50 (IGROV-ET; read-out: IGROV-ET GI50, SRB assay, 48 hours exposure) was 1520 nM and the CC50 (LoVo; Homo sapiens, LoVo, 48 h) was 27.7 µM. For the same compound, the “LOVO TGI” value (LoVo; SRB assay, 48 hours exposure) was 1.27E−05, the GI50 (LoVo; read-out: LOVO GI50, SRB assay, 48 hours exposure) was 5.07 µM and the CC50 (SK-MEL-28; Homo sapiens, SK-MEL-28, 48 h) was 18 µM. For the same compound, the “MEL-28 TGI” value (SK-MEL-28; SRB assay, 48 hours exposure) was 7.43E−06, the GI50 (SK-MEL-28; read-out: MEL-28 GI50, SRB assay, 48 hours exposure) was 3080 nM and the CC50 (A-549; Homo sapiens, A549, 48 h) was 22.3 µM. For the same compound, the “A-549 TGI” value (A-549; SRB assay, 48 hours exposure) was 4.55E−06, the GI50 (A-549; read-out: A-549 GI50, SRB assay, 48 hours exposure) was 707 nM and the CC50 (LoVo-Dox; Homo sapiens, 48 h) was 27.7 µM. The “LOVO-DOX TGI” value (LoVo-Dox; SRB assay, 48 hours exposure) was 1.93E−05, the GI50 (LoVo-Dox; read-out: LOVO-DOX GI50, SRB assay, 48 hours exposure) was 7.51 µM and the GI50 (SK-BR-3) was 1920 nM. The CC50 (SK-BR-3) was 23.6 µM, the “SK-BR-3 TGI” value (SK-BR-3) was 7.37E−06 and the CC50 (K-562; Homo sapiens, K562, 48 h) was 24.4 µM. For the same compound, the “K-562 TGI” value (K-562; SRB assay, 48 hours exposure) was 8.34E−06, the GI50 (K-562; read-out: K-562 GI50, SRB assay, 48 hours exposure) was 2850 nM and the CC50 (HT-29; Homo sapiens, HT-29, 48 h) was 18.7 µM. For the same compound, the “HT-29 TGI” value (HT-29; SRB assay, 48 hours exposure) was 4.85E−06, the GI50 (HT-29; read-out: HT-29 GI50, SRB assay, 48 hours exposure) was 457 nM and the “HELA-APL TGI” value (HeLa-APL; SRB assay, 48 hours exposure) was 1.77E−07. For the same compound, the GI50 (HeLa-APL; read-out: HELA-APL GI50, SRB assay, 48 hours exposure) was 78.7 nM, the CC50 (HeLa-APL; read-out: HELA-APL LC50, SRB assay, 48 hours exposure) was 1850 nM and the CC50 (PANC-1; Homo sapiens, PANC-1, 48 h) was 24.6 µM. For the same compound, the “PANC-1 TGI” value (PANC-1; SRB assay, 48 hours exposure) was 9.98E−06, the GI50 (PANC-1; read-out: PANC-1 GI50, SRB assay, 48 hours exposure) was 4050 nM and the CC50 (IGROV-1; Homo sapiens, IGROV-1, 48 h) was 27 µM. The “IGROV TGI” value (IGROV-1; SRB assay, 48 hours exposure) was 3.10E−06, the GI50 (IGROV-1; read-out: IGROV GI50, SRB assay, 48 hours exposure) was 93.1 nM and the “LN-caP TGI” value (LNCaP; SRB assay, 48 hours exposure) was 2.88E−07. For the same compound, the GI50 (LNCaP; read-out: LN-caP GI50, SRB assay, 48 hours exposure) was 109 nM and the CC50 (LNCaP; read-out: LN-caP LC50, SRB assay, 48 hours exposure) was 5.82 µM.
